Where a name gives a salt, the structure may show the parent alone.
Molecular target: HPK1 (Homo sapiens (Human), UniProt Q92918)
Assay: HPK1 biochemical enzyme assay (microfluidic mobility shift assay)
Details: 1.5 nM HPK1, ATP 1 mM final, 60 min at RT, Caliper EZ Reader; read-out: HPK1 1000UMATP caliper IC50
Procedure: HPK1 biochemical enzyme assay: HPK1 enzyme inhibition was measured using a microfluidic mobility shift assay. […] Test compounds were titrated in ten point curves (top final assay concentration […]), and preincubated with enzyme/substrate mix for 30 min prior to initiation of the reaction by addition of ATP (1 mM final concentration) and substrate (1 μM final concentration; Carna Biosciences) diluted in assay buffer supplemented by MgCl2 (final assay concentration of 5 mM). Following 60 min incubation at RT, the reaction was terminated by addition of 60 µl/well termination buffer (Carna Biosciences) and signal determination using a Caliper EZ Reader (Perkin Elmer, UK). […] The compound numbers correspond to the compound numbers in Table 1.

Sequence of HPK1 (Q92918 whole entry): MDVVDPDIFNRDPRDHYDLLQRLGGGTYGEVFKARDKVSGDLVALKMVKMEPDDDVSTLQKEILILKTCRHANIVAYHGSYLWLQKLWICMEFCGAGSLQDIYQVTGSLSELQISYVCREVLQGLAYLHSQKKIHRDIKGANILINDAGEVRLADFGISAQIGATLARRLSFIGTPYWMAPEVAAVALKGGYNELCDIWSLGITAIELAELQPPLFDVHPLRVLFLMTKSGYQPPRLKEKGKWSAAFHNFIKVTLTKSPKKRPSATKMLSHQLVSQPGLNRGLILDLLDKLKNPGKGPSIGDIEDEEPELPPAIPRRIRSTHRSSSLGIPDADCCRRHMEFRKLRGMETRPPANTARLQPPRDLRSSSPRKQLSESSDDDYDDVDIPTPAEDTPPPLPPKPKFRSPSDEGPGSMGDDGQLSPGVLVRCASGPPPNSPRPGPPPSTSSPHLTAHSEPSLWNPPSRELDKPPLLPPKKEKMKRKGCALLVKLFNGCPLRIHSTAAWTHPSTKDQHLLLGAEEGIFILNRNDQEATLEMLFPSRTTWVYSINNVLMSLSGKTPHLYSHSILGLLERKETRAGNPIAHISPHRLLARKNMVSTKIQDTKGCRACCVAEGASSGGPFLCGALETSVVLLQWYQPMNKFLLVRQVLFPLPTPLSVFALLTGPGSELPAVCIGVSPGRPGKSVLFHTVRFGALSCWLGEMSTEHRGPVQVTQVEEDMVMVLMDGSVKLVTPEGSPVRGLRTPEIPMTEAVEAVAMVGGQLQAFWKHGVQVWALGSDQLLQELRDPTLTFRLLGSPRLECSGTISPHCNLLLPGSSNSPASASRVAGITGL

| Compound | IC50 [nM] |
| --- | --- |
| CC1NC(=O)c2c(Nc3ccc(N4CCC(O)CC4)cn3)ccc(-c3ccnc4c3ccn4C)c21 (stereo in doubt) [I-287, (R)-7-((5-(4-hydroxypiperidin-1-yl)pyridin-2-yl)amino)-3-methyl-4-(1-methyl-1H-pyrrolo[2,3-b]pyridin-4-yl)isoindolin-1-one] | < 100 |
| O=C1NCc2c(-c3cnc4cc(F)ccn34)ccc(Nc3ccn(C4CCOCC4)n3)c21 [I-382, 4-(7-fluoroimidazo [1,2-a]pyridin-3-yl)-7-((1-(tetrahydro-2H-pyran-4-yl)-1H-pyrazol-3-yl)amino)isoin-dolin-1-one] | > 1000 |
| O=C1NCc2c(-c3cnc4cc(F)ccn34)ccc(Nc3ccc(N4CCC(O)CC4)cn3)c21 [I-138] | < 100 |
| (R)-7-((6- ((dimethylamino)- methyl)-5-(3-(2- hydroxypropan- 2-yl)piperidin-1- yl)pyridin-2- yl)amino)-4-(7- fluoroimidazo [1,2-a]pyridin- 3-yl)isoindolin- 1-one [I-745] | < 100 |
| O=C1NCc2c(-c3cnc4cc(CO)ccn34)ccc(Nc3ccc(N4CCC(O)CC4)cn3)c21 [I-177, 4-[7-(hydroxymeth-yl)imidazo[1,2-a]pyridin-3-yl]-7-[[5-(4-hydroxy-1-piperidyl)-2-pyripyl]amino] isoindolin-1-one] | < 100 |
| Cn1ccc2c(-c3ncc(Nc4ccc(N5CCNCC5)cn4)c4c3CNC4=O)cccc21 [I-266, 4-(1-methyl-1H-indol-4-yl)-7-((5-(piperazin-1-yl)pyridin-2-yl)amino)-2,3-dihydro-1H-pyrrolo[3,4-c]pyridin-1-one] | < 100 |
| Cc1ccn2c(-c3ccc(Nc4ccc([C@H]5CCOC5)c(CN(C)C)n4)c4c3CNC4=O)cnc2n1 (stereo in doubt) [I-561, 7-[[6-[(dimethylamino)-methyl]-5-tetralndrofliran-3-yl-2-pyridyl]amino] 4-(7-methylimidazo [1,2-a]pyrimidin-3-yl)isoindolin-1-one] | < 100 |
| 7-((5-(4-hydroxypiperidin-1-yl)pyridin-2-yl)amino)-4-(imidazo[1,2-a]pyrazin-5-yl)-2,3-dihydro-1H-pyrrolo[3,4-c]pyridin-1-one [I-376] | 100 to 1000 |
| O=C1NCc2c(-c3cnc4ccccn34)ncc(Nc3ccc(N4CCOCC4)cn3)c21 [I-198, 4-imidazo[1,2-a]pyridin-3-yl-7-[(5-morpholino-2-pyridyl)-amino]-2,3-dihydropyrrolo [3,4-c]pyridin-1-one] | 100 to 1000 |
| O=C1NCc2c(-c3cnc4ccccn34)ccc(Nc3ccc(N4CCC(O)CC4)cn3)c21 [I-125, 7-[[5-(4-hydroxy-1-piperidyl)-2-pyridyl]amino]-4-imidazo[1,2-a]pyridin-3-yl-isoindolin-1-one] | < 100 |
| CC1NC(=O)c2c(Nc3ccc(N4CCC(O)CC4)cn3)ccc(-c3ccnc4c3ccn4C)c21 (stereo in doubt) [I-286, (S)-7-((5-(4-hydroxypiperidin-1-yl)pyridin-2-yl)amino)-3-methyl-4-(1-methyl-1H-pyrrolo[2,3-b]pyridin-4-yl)isoindolin-1-one] | > 1000 |
| O=C1NCc2c(-c3cnc4cc(F)ccn34)ccc(Nc3ccc(C4CCOCC4)cn3)c21 [I-341] | < 100 |
| Cc1cnc2c(-c3ccc(Nc4ccc(N5CCC(O)CC5)cn4)c4c3CNC4=O)cnn2c1 [I-186, 7-[[5-(4-hydroxy-1-piperidyl)-2-pyridyl)amino]-4-(6-methylpyra-zolo[1,5-a]pyrimidin-3-yl)isoindolin-1-one] | < 100 |
| 7-((5-((3R,4R)-4-fluoro-3-hydroxypiperidin-1-yl)pyridin-2-yl)amino)-4-(imidazo[1,2-a]pyrazin-3-yl)isoindolin-1-one [I-434] | < 100 |

Further lines, results first:

| IC50 [nM] | Compound |
| --- | --- |
| < 100 | CN1CC(Oc2nc(Nc3ccc(-c4cnc5cc(F)ccn45)c4c3C(=O)NC4)ccc2[C@@H]2CCOC2)C1 [I-816, (S)-4-(7-fluoroimidazo [1,2-a]pyridin-3-yl)-7-((6-((1-methylazetidin-3-yl]oxy)-5-(THF-3-yl)pyridin-2-yl)amino)isoin-dolin-1-one] |
| < 100 | Cc1ccn2c(-c3ncc(Nc4cccc(N5CCC6CNCC65)n4)c4c3CNC4=O)cnc2c1F (stereo not drawn) [I-481] |
| < 100 | CN1CCN(c2nc(Nc3ccc(-c4cnc5cc(F)ccn45)c4c3C(=O)NC4)ccc2[C@@H]2CCOC2)CC1 [I-802, (S)-4-(7-fluoroimidazo [1,2-a]pyridin-3-yl)-7-((6-(4-methylpiperazin-1-yl)-5-(tetrahydrofuran-3-yl)pyridin-2-yl)amino)isoin-dolin-1-one] |
| < 100 | CC(C)(O)[C@H]1CN(c2ccc(Nc3ccc(-c4cnc5cnccn45)c4c3C(=O)NC4)nc2)CCO1 [I-486, 7-[[5-[(2R)-2-(1-hydroxy-1-methylethyl)morpholin-4-yl]-2-pyridyl]amino]-4-imidazo[1,2-a]pyrazin-3-yl-isoindolin-1-one] |
| < 100 | CN1CCN(c2nc(Nc3ccc(-c4cnc5cc(F)ccn45)c4c3C(=O)NC4)ccc2[C@H]2CCOC2)CC1 [I-801, (R)-4-(7-fluoroimidazo [1,2-a]pyridin-3-yl)-7-((6-(4-methylpiperazin-1-yl)-5-(tetrahydrofuran-3-yl)pyridin-2-yl)amino)isoin-dolin-1-one] |
| 100 to 1000 | Cc1ccn2c(-c3ncc(Nc4cccc(N5CC[C@@H]6CNC[C@@H]65)n4)c4c3CNC4=O)cnc2c1F [I-480, 7-[[6-[(3aR,6aR)-3.3a,4,5,6.6a-hexahydro-2H-pyrrolo[2,3-c]pyrrol-1-yl]-2-pyridyl]amino]-4-(8-fluoro-7-methyl-imidazo[1,2-a]pyridin-3-yl)-2,3-dihydropyrrolo [3,4-c]pyridin-1-one] |
| < 100 | Cc1ccc2c(-c3ccc(Nc4ccc(CN5CCOCC5)cn4)c4c3CNC4=O)cnn2c1 [I-469, 4-(6-methylpyrazolo[1,5-a]pyridin-3-yl)-7-[[5-(morpholino-methyl)-2-pyridyl]amino] isoindolin-1-one] |
| < 100 | COCC1(O)CCN(c2ccc(Nc3cnc(-c4ccnc5c4ccn5C)c4c3C(=O)NC4)nc2CN(C)C)CC1 [I-851, 7-1(6-[(dimethylamino)-methyl (-5-[4-hydroxy-4-(methoxymeth-yl)-1-piperidyl]-2-pyridyl]amino]-4-(1-methylpyrrolo [2,3-b]pyridin-4-yl)-2,3-dihydropyrrolo [3,4-c]pyridin-1-one Formate salt] |
| < 100 | O=C1NCc2c(-c3cnc4cc(F)ccn34)ccc(Nc3ccc(N4CCC(N5CCOCC5)CC4)cn3)c21 [I-488, 4-(7-fluoroimidazo [1,2-a]pyridin-3-yl)-7-[[5-(4-morpholino-1-piperidyl)-2-pyridyl]amino] isoindolin-1-one] |
| < 100 | O=C1NCc2c(-c3cnc4cc(F)ccn34)ccc(Nc3ccc(N4CCO[C@H]5CNC[C@H]54)cn3)c21 [I-694, 4-(7-fluoroimidazo [1,2-a]pyridin-3-yl)-7-((5-((4aR,7aS)-hexahydro-pyrrolo[3,4-b][1.4]oxazin-4(4aH)-yl)pyridin-2-yl)amino)isoin-dolin-1-one] |
| < 100 | COCC1CN(c2ccc(Nc3ccc(-c4cnc5cc(F)ccn45)c4c3C(=O)NC4)nc2CN(C)C)CCO1 (stereo in doubt) [I-711, (R)-7-((6-((dimethylamino)-methyl)-5-(2-(methoxymeth-yl)morpholino)pyridin-2-yl)amino)-4-(7-fluoroimidazo [1,2-a]pyridin-3-yl)isoindolin-1-one] |
| < 100 | CN(C)Cc1nc(Nc2cnc(-c3ccnc4c3ccn4C)c3c2C(=O)NC3)ccc1O[C@@H]1CCOC1 [I-805, (R)-7-((6-((dimethylamino)-methyl)-5-((tetrahydrofur-an-3-yl)oxy)pyridin-2-yl)amino)-4-(1-methyl-1H-pyrrolo[2,3-b]pyridin-4-yl)-2,3-dihydro-1H-pyrrolo[3,4-c]pyridin-1-one] |
| < 100 | Cc1cccn2c(-c3ccc(Nc4ccc(C5CCOC5)c(CN(C)C)n4)c4c3CNC4=O)cnc12 (stereo in doubt) [I-696, (R)-7-((6-((dimethylamino)-methyl)-5-(tetrahydrofuran-3-yl)pyridin-2-yl)amino)-4-(8-methylimidazo [1,2-a]pyridin-3-yl)isoindolin-1-one] |
| < 100 | Cn1ccc2c(-c3ncc(Nc4ccc(C5CCOC5)c(CN5CCCC5)n4)c4c3CNC4=O)ccnc21 (stereo not drawn) [I-552, 4-(1-methylpyrrolo [2,3-b]pyridin-4-yl)-7-[[6-(pyrrolidin-1-ylmethyl)-5-tetralndrofuran-3-yl-2-pyridyl]amino]-2,3-dihydropyrrolo [3,4-c]pyridin-1-one] |
| < 100 | Cc1cccn2c(-c3ncc(Nc4ccc(C5CCOC5)c(CN(C)C)n4)c4c3CNC4=O)cnc12 (stereo not drawn) [I-539] |
| 100 to 1000 | O=C1NCc2c(-c3ncc4cnccn34)ccc(Nc3ccc(N4CCC(O)CC4)cn3)c21 [I-398, 7-((5-(4-hydroxypipendin-1-yl)pyridin-2-yl)amino)-4-(imidazo[1,5-a]pyrazin-3-yl)isoindolin-1-one] |
| < 100 | C[C@@H]1CN(c2ccc(Nc3ccc(-c4cnc5cc(F)ccn45)c4c3C(=O)NC4)nc2CN(C)C)CCO1 [I-541, 7-[[6-[(dimethylamino)-methyl]-5-[(2R)-2-methylmorpho-lin-4-yl]-2-pyridyl]amino] 4-(7-fluoroimidazo [1,2-a]pyridin-3-yl)isoindolin-1-one] |
| < 100 | Cc1cccn2c(-c3ccc(Nc4ccc(C5CCOC5)c(CN(C)C)n4)c4c3CNC4=O)cnc12 (stereo in doubt) [I-695, (S)-7-((6-((dimethylamino)-methyl)-5-(tetrahydrofuran-3-yl)pyridin-2-yl)amino)-4-(8-methylimidazo [1,2-a]pyridin-3-yl)isoindolin-1-one] |
| < 100 | CN(C)Cc1nc(Nc2cnc(-c3cccc4c3ccn4C)c3c2C(=O)NC3)ccc1[C@@H]1CCOC1 (single isomer, unassigned) [I-540] |
